Laboratory results as given in PMC8769072, “Proteome‐scale mapping of binding sites in the unstructured regions of the human proteome” (Molecular Systems Biology, 2022).

Test system: immobilized GST-tagged bait protein domains
Assay: ProP-PD phage selections (HD2 P8, sublibraries, HD2 P3, HD1 P8) with NGS and confidence level
Assay type: binding, human
[1] = bait ANKRA2_Ank__Q9H9E1_142_313, HD2 P8 selection, confidence level -4 to 4: 4 = High, 3 or 2 = Medium, 1 = Low, 0 = Filtered/Noise
[2] = bait MAP1LC3B_ATG8 (Q9GZQ8 2-119), HD2 library, benchmark motif instance recovered in the ProP-PD selection (TRUE/FALSE)
[3] = bait CALM1_EF-hand__P0DP23_2_149, library HD2, benchmarking set of validated motif instances, TRUE = motif instance recovered in the ProP-PD selection
[4] = bait PEX14_Pex14__O75381_16_84, HD2 library, whether the validated benchmark motif instance was recovered in the ProP-PD selection (TRUE/FALSE)
[5] = library HD2, bait Keap1_KELCH__Q14145_321_609, whether the validated benchmark motif instance was recovered in the ProP-PD selection (TRUE/FALSE)
[6] = HD2 library, bait CALM1_EF-hand__P0DP23_2_149, benchmark motif instance, in_library_check FALSE, in_library_coverage 0
[7] = HD2 library, bait TLN1_PTB__Q9Y490_309_401, known motif instance of the benchmarking set found (TRUE) or not found (FALSE) among selected peptides
[8] = HD2 library, bait TNKS_TANK-peptide-bind__O95271_174_649, known motif instance of the benchmarking set found (TRUE) or not found (FALSE) among selected peptides
[9] = bait KPNA4_Arm (O00629 68-487), HD2 library, benchmark motif instance recovered in the ProP-PD selection (TRUE/FALSE)
[10] = HD2 library, bait SUMO1_SUMO__P63165_1_101, known motif instance of the benchmarking set found (TRUE) or not found (FALSE) among selected peptides
[11] = library HD2, bait EPS15_EH__P42566_121_215, whether the validated benchmark motif instance was recovered in the ProP-PD selection (TRUE/FALSE)
[12] = library HD2, bait EIF4E_eIF4E__P06730_1_217, whether the validated benchmark motif instance was recovered in the ProP-PD selection (TRUE/FALSE)
[13] = library HD2, bait USP7_MATH-TRAF__Q93009_53_206, validated benchmark motif instance, in_library_check TRUE, TRUE/FALSE = instance recovered in ProP-PD selection
[14] = library HD2, bait WDR5_WD_1234567_P61964_21_334, validated benchmark motif instance, in_library_check TRUE, TRUE/FALSE = instance recovered in ProP-PD selection

HPAPSWVAFAHTGAWG
HD2 confidence (bait AP2B1_adaptin__P63010_700_937, HD2 P8 selection, non primary paralogue peptide match, confidence level -4 to 4: 4 = High, 3 or 2 = Medium, 1 = Low, 0 = Filtered/Noise): 3

TNLYWPGTAEPLLVSS
confidence (library HD, bait AP2B1_adaptin__P63010_700_937, ProP-PD peptides with disease-related mutations): 2

KTAEKSDFEAVEALMSMSCSWKSD [KLF10 39-48]
motif_found (HD2 library, bait SIN3A_PAH__Q96ST3_295_383, benchmark motif instance, in_library_check FALSE, in_library_coverage 0): FALSE

PQPKLPYLPTFPFSMP
HD2 confidence [1]: 2

SGETQTTSPAIPWAAF
HD confidence (bait AP2B1_adaptin__P63010_700_937, HD1 P8 library, confidence level (4 = High, 2-3 = Medium, 1 = Low)): 4
HD mean counts (bait AP2B1_adaptin__P63010_700_937, HD1 P8 library, mean NGS counts over replicate selections): 10.25
HD count proportions (bait AP2B1_adaptin__P63010_700_937, HD1 P8 library, mean proportion of NGS counts): 0.003472

DSSCDTDDFVMVPAQFPGD
motif_found (bait MAP1LC3A_ATG8 (Q9H492 2-121), HD2 library, benchmark motif instance recovered in the ProP-PD selection (TRUE/FALSE)): FALSE
motif_found [2]: FALSE

LETKVFPRPVLPSLTV
p3_HD2 confidence (bait ANKRA2_Ank__Q9H9E1_142_313, library HD2 P3): 2
p3_HD2 count proportions (bait ANKRA2_Ank__Q9H9E1_142_313, library HD2 P3, mean normalised NGS counts): 0.06348
p3_HD2 mean counts (bait ANKRA2_Ank__Q9H9E1_142_313, library HD2 P3, mean raw NGS counts, all selections): 1066
HD2 confidence (bait ANKRA2_Ank__Q9H9E1_142_313, library HD2 P8): 4
HD2_nc confidence (bait ANKRA2_Ank__Q9H9E1_142_313, library HD2 P8 nucleocytoplasmic): 3
HD2_nc count proportions (bait ANKRA2_Ank__Q9H9E1_142_313, library HD2 P8 nucleocytoplasmic, mean normalised NGS counts): 0.1009
HD2_nc mean counts (bait ANKRA2_Ank__Q9H9E1_142_313, library HD2 P8 nucleocytoplasmic, mean raw NGS counts, all selections): 4420.0

NLNGTIKDDFSEFDNLRTSKKTAE [EPN2]
motif_found (bait AP2B1_adaptin__P63010_700_937, library HD2, benchmarking set of validated motif instances, TRUE = motif instance recovered in the ProP-PD selection): FALSE

RRKWQKTGNAVRAIGRLSSM [MYLK]
motif_found [3]: FALSE

EKPVPTLPQFTMGPNV
HD2 confidence [1]: 3

DVDYFGQQFDQISNRT
HD confidence (bait AP2B1_adaptin__P63010_700_937, library HD): 2
HD count proportions (bait AP2B1_adaptin__P63010_700_937, library HD, mean normalised NGS counts): 0.1904
HD mean counts (bait AP2B1_adaptin__P63010_700_937, library HD, mean raw NGS counts, all selections): 883.25

FASQEKFFQELFDSELASQ
motif_found [4]: FALSE

QQKQRQKHFNRQIPAAASLIQTAWRCYAAENPDSSTWKIYIRKAPRSHTLLSPSPKPKKSVVVKKKKFKLDKDNGVTPGEKMLTVPHITCDPPEERRLDHFSVDGYDSSVRKSPTLLEVSMPHFMRTNSFAEDLDLEGETLLTPITHISQLREHHRATIKVIRRMQYFVAKKKFQQARKP [KCNQ1]
motif_found [3]: FALSE

VDPSTGELQSLQMPES
best_specificity (library HD2, bait Keap1_KELCH__Q14145_321_609, best matching peptide): 1
best_confidence (library HD2, bait Keap1_KELCH__Q14145_321_609, confidence level of best matching peptide (4 High, 2-3 Medium, 1 Low)): 3
motif_found [5]: TRUE

TRKKTFKEVANAVKISASLMGT
motif_found (library HD2, bait CALM1_EF-hand__P0DP23_2_149, motif instance NOT in library (in_library_check FALSE, in_library_coverage 0)): FALSE

IPSAPLYEEITYSGIS
best_specificity (HD2 library, bait TSG101_UEV__Q99816_1_145, best matching selected peptide): 1
best_confidence (HD2 library, bait TSG101_UEV__Q99816_1_145, confidence level of best matching selected peptide): 3
motif_found (HD2 library, bait TSG101_UEV__Q99816_1_145, known motif instance of the benchmarking set found (TRUE) or not found (FALSE) among selected peptides): TRUE

NHWQKIRTMVNLPVISPFK [ITPKA 165-183]
motif_found [6]: FALSE

DYESDDDSYEVLDLTEY
motif_found [2]: FALSE

KMNAKWDTGENPIYKSAVTTVV
motif_found [7]: FALSE

SAEPRPRTRSNPEGAEDRAVGA
motif_found [8]: FALSE

ASSATRELDELMASLSDFKIQGL
motif_found (bait PTK2_Focal-AT__Q05397_891_1050, HD2 library, whether the validated benchmark motif instance was recovered in the ProP-PD selection (TRUE/FALSE)): FALSE

QQGTSDAWVDQFTRPVNTS
motif_found [4]: FALSE

GHPESPPRKRLKSKGSDKDF
motif_found [9]: FALSE

SHLGTYGVFTNAAFDPSP----
motif_found [7]: FALSE

ATGSDSSGVIDLTMDDEESG
motif_found [10]: FALSE

STAQEQDDVLIVDSDEEDSSNNADV
motif_found [10]: FALSE

FPTGSSSTNPFL-------
motif_found [11]: FALSE

YDREFLLDFQFMPACI
best_specificity (library HD2, bait EIF4E_eIF4E__P06730_1_217, best matching peptide): 1
best_confidence (library HD2, bait EIF4E_eIF4E__P06730_1_217, confidence level of best matching peptide (4 High, 2-3 Medium, 1 Low)): 2
motif_found [12]: TRUE

DSFYNNSYNPFKEVQTPQY
motif_found [11]: FALSE

GPLRPVLEYIDLVSSDDEEPSTSYTD
motif_found [10]: FALSE

VEEEWVIVSDEEIEEA
HD2_endomembrane confidence (bait MAP1LC3A_ATG8__Q9H492_2_121, HD2 P8 endomembrane sublibrary, confidence level (4 = High, 2-3 = Medium, 1 = Low)): 4

SSSSASGSYGHLSASAISPALS
motif_found (bait SUFU_SUFU__Q9UMX1_1_484, HD2 library, whether the validated benchmark motif instance was recovered in the ProP-PD selection (TRUE/FALSE)): FALSE

VGSQADTNVIDLTGDDKDDL
motif_found [10]: FALSE

QFSLYTSPSLPNISLGLQATVTVT [HDAC5]
motif_found (bait ANKRA2_Ank__Q9H9E1_142_313, library HD2, benchmarking set of validated motif instances, TRUE = motif instance recovered in the ProP-PD selection): TRUE

FLKLKNAATLIQRHWRGHNCRKNYGLMRLGF [MYO7A 771-787]
motif_found [6]: FALSE

LLSIHKVYEAVELLKSNHFYR [GEMIN5 992-998]
motif_found (HD2 library, bait EIF4E_eIF4E__P06730_1_217, benchmark motif instance, in_library_check FALSE, in_library_coverage 0): FALSE

ESEDYSQPSTSSSIIYSSQ
motif_found [13]: FALSE

FRHRLWAVLTVQAYARGMIARRLHQRLRAEY [MYO7A 840-856]
motif_found [6]: FALSE

SARILKEYNPFEEEDEEEE
motif_found [11]: FALSE

PPLNPHGAARAEVYLRKCTFD
motif_found [14]: FALSE

GNVIRWHNQETGEQIAIKQC
motif_found [5]: FALSE

RKRAKV
motif_found [9]: FALSE

NMTPYRSPPPYVPP----
motif_found (bait NEDD4_WW_4 (P46934 890-928), HD2 library, benchmark motif instance recovered in the ProP-PD selection (TRUE/FALSE)): FALSE
motif_found (library HD2, bait YAP1_WW_1_P46937_169_207, validated benchmark motif instance, in_library_check TRUE, TRUE/FALSE = instance recovered in ProP-PD selection): FALSE

QERPLTNKLKRKRRPTSGLHPE
motif_found [9]: FALSE

DYFDYESTNPFTAKFRASN
motif_found [11]: FALSE

NVQRLLEAAEFLERRE
best_confidence (bait SIN3A_PAH__Q96ST3_295_383, HD2 library, confidence level (1-4) of best matching selected peptide): 3
best_specificity (bait SIN3A_PAH__Q96ST3_295_383, HD2 library, specificity score of best matching selected peptide): 0.6
motif_found (bait SIN3A_PAH__Q96ST3_295_383, HD2 library, whether the validated benchmark motif instance was recovered in the ProP-PD selection (TRUE/FALSE)): TRUE

AQCSTSDSACRISPGQ
best_confidence (library HD2, bait USP7_MATH-TRAF__Q93009_53_206, confidence level of best matching selected peptide (4 High, 2-3 Medium, 1 Low)): 2
best_specificity (library HD2, bait USP7_MATH-TRAF__Q93009_53_206, specificity score of best matching selected peptide): 1
motif_found [13]: TRUE

LAVNPTGCARSEPKMSAHVKR
motif_found [14]: FALSE

SLWTALSNFSMPSFPG
HD2-1mM_CaCl confidence (bait CALM1 EF-hand (P0DP23, 2-149), HD2 library selection with 1mM_CaCl, confidence level (4 = High, 2 or 3 = Medium, 1 = Low)): 4
HD2 confidence (bait CALM1 EF-hand (P0DP23, 2-149), HD2 library selection, confidence level (4 = High, 2 or 3 = Medium, 1 = Low)): 4

SSHRKTKKPLPPTPEEDQILK
motif_found (library HD2, bait YES1_SH3__P07947_90_152, validated benchmark motif instance, in_library_check TRUE, TRUE/FALSE = instance recovered in ProP-PD selection): FALSE

AVPSVPSTDWEDGDLTDTVSGP
motif_found (library HD2, bait KLC1_TPR__Q07866_203_497, whether the validated benchmark motif instance was recovered in the ProP-PD selection (TRUE/FALSE)): FALSE

HLNNDSSTTIIIDSSDETTESPTVGTAQ
motif_found [10]: FALSE

GQSLKVMPCLAPIAAKVGS
motif_found (library HD2, bait ZMYND11_coiled-coil-MYND__Q15326_480_602, validated benchmark motif instance, in_library_check TRUE, TRUE/FALSE = instance recovered in ProP-PD selection): FALSE

LSLGSAGERGEAEGCPPSREAE
motif_found [8]: FALSE

NLEEKKRYDREFLLGFQFIFA
motif_found [12]: FALSE
